Converted amounts (≈) assume the structure as drawn.
Columns and labels:
Assay in all cases: in vitro antibacterial evaluation, MIC by broth dilution
Format in all cases: cell-based
[1] = system: Enterococcus sp.; conditions: broth dilution, 18 hours at 35° C.
Experimental: (§1) Methods for in vitro Antibacterial Evaluation (Table 1)
(§2) The minimum inhibitory concentration (MIC), the lowest concentration of the antibiotic which inhibits growth of the test organism, is determined by the broth dilution method using Muller-Hinton II […] (Baltimore Biological Laboratories) following the recommendations of the National Committee for Clinical Laboratory Standards [Methods for dilution antimicrobial susceptibility tests for bacteria that grow aerobically, approved standard M7-A2, National Committee for Clinical Laboratory Standards, Villanova, Pa.].
(§3) An inoculum level of 5×10^5 CFU/mL, and a range of antibiotic concentrations (64-0.06 μg/mL) is used. […] The test organisms include a spectrum of Gram-positive bacteria comprised of Staphylococcus sp., Streptococcus sp. and Enterococcus sp. These organisms include recent clinical isolates that are resistant to methicillin, penicillin and/or vancomycin.

[2] = system: Streptococcus sp.; conditions: broth dilution, 18 hours at 35° C.
Experimental: as §1, §2, §3

[3] = system: Staphylococcus sp.; conditions: broth dilution, 18 hours at 35° C.
Experimental: as §1, §2, §3

[4] = system: Escherichia coli; conditions: 18 hours at 35° C.
Method in brief: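 Broth dilution in Muller-Hinton II medium per NCCLS standard M7-A2, with an inoculum of 5×10^5 CFU/mL and antibiotic tested over 64-0.06 μg/mL. MIC was taken as the lowest concentration inhibiting visible growth.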

Which “MIC Enterococcus avium (GC 4558)” value ([1]; Enterococcus avium (GC 4558)) does the source give for CC(c1ccccc1)C1NC(=O)CNC(=O)C(CO)NC(=O)C(C(O)C2CNC(=N)N2C2OC(CO)C(O)C(O)C2O)NC(=O)C(C(O)C2CNC(=N)N2)NC(=O)C(Cc2ccc(OC3OC(COC(=O)C(c4ccccc4)c4ccccc4)C(OC4OC(CO)C(O)C(O)C4O)C(O)C3O)cc2)NC1=O (stereo not drawn) [Example 96b, Cyclo[glycyl-β-methylphenylalanyl-O-[6-O-(diphenylacetyl)-4-O-hexopyranosylhexopyranosyl]tyrosyl-3-(2-iminoimidazolidin-4-yl)seryl-3-(3-hexopyranosyl-2-iminoimidazolidin-4-yl)serylseryl]] here?
The value was 4 µg/mL (≈ 2.69 µM).

What about the “MIC Enterococcus faecalis (ATCC 29212)” value ([1]; Enterococcus faecalis (ATCC 29212)) of the same compound?
Its value is 8 µg/mL (≈ 5.37 µM).

And the “MIC Enterococcus faecalis (GC 2242)” value ([1]; Enterococcus faecalis (GC 2242))?
Its value is 4 µg/mL (≈ 2.69 µM).

And the “MIC Enterococcus faecalis (GC 4552)” value ([1]; Enterococcus faecalis (GC 4552))?
The value was 8 µg/mL (≈ 5.37 µM).

What about the “MIC Enterococcus faecalis (GC 4553)” value ([1]; Enterococcus faecalis (GC 4553)) of the same compound?
The value was 8 µg/mL (≈ 5.37 µM).

And the “MIC Enterococcus faecalis (GC 4554)” value ([1]; Enterococcus faecalis (GC 4554))?
Its value is 8 µg/mL (≈ 5.37 µM).

And the “MIC Enterococcus faecium (GC 2243)” value ([1]; Enterococcus faecium (GC 2243))?
Its value is 8 µg/mL (≈ 5.37 µM).

What about the “MIC Enterococcus faecium (GC 4556)” value ([1]; Enterococcus faecium (GC 4556)) of the same compound?
The value was 8 µg/mL (≈ 5.37 µM).

What about the “MIC Enterococcus faecium (GC 4557)” value ([1]; Enterococcus faecium (GC 4557)) of the same compound?
Its value is 1 µg/mL (≈ 0.671 µM).

What about the “MIC Enterococcus avium (GC 4558)” value [1] of the same compound?
The value was 4 µg/mL (≈ 2.69 µM).

What about the “MIC Enterococcus faecalis (ATCC 29212)” value [1] of the same compound?
Its value is 8 µg/mL (≈ 5.37 µM).

What about the “MIC Enterococcus faecalis (GC 2242)” value [1] of the same compound?
The value was 4 µg/mL (≈ 2.69 µM).

And the “MIC Enterococcus faecalis (GC 4552)” value [1]?
Its value is 8 µg/mL (≈ 5.37 µM).

And the “MIC Enterococcus faecalis (GC 4553)” value [1]?
Its value is 8 µg/mL (≈ 5.37 µM).

And the “MIC Enterococcus faecalis (GC 4554)” value [1]?
The value was 8 µg/mL (≈ 5.37 µM).

What about the “MIC Enterococcus faecium (GC 2243)” value [1] of the same compound?
Its value is 8 µg/mL (≈ 5.37 µM).

What about the “MIC Enterococcus faecium (GC 4556)” value [1] of the same compound?
The value was 8 µg/mL (≈ 5.37 µM).

And the “MIC Enterococcus faecium (GC 4557)” value [1]?
The value was 1 µg/mL (≈ 0.671 µM).

And the “MIC Streptococcus agalactiae (GC 4564)” value ([2]; Streptococcus agalactiae (GC 4564))?
The value was 0.25 µg/mL (≈ 0.168 µM).

What about the “MIC Streptococcus pneumoniae (GC 4565)” value ([2]; Streptococcus pneumoniae (GC 4565)) of the same compound?
Its value is less than 0.12 µg/mL.

What about the “MIC Streptococcus pyogenes (ID-3187)” value ([2]; Streptococcus pyogenes (ID-3187)) of the same compound?
The value was 0.25 µg/mL (≈ 0.168 µM).

And the “MIC Streptococcus agalactiae (GC 4564)” value [2]?
The value was 0.25 µg/mL (≈ 0.168 µM).

And the “MIC Streptococcus pneumoniae (GC 4565)” value [2]?
The value was less than 0.12 µg/mL.

What about the “MIC Streptococcus pyogenes (ID-3187)” value [2] of the same compound?
The value was 0.25 µg/mL (≈ 0.168 µM).

And the “MIC Coagulase Negative Staphylococcus (GC 4547)” value [3]?
Its value is 1 µg/mL (≈ 0.671 µM).

What about the “MIC Coagulase Negative Staphylococcus (GC 4548)” value [3] of the same compound?
Its value is 0.5 µg/mL (≈ 0.336 µM).

And the “MIC Coagulase Negative Staphylococcus (GC 4549)” value [3]?
The value was 0.5 µg/mL (≈ 0.336 µM).

What about the “MIC Coagulase Negative Staphylococcus (GC 4551)” value [3] of the same compound?
Its value is 2 µg/mL (≈ 1.34 µM).

What about the “MIC Coagulase Negative Staphylococcus (ID-3941)” value [3] of the same compound?
The value was 0.5 µg/mL (≈ 0.336 µM).

What about the “MIC Staphylococcus aureus-SMITH (GC 4543)” value [3] of the same compound?
Its value is 2 µg/mL (≈ 1.34 µM).

What about the “MIC Staphylococcus haemolyticus (GC 4546)” value [3] of the same compound?
The value was 1 µg/mL (≈ 0.671 µM).

What about the “MIC Staphylococcus haemolyticus (GC 4546)” value ([3]; strain GC 4546) of the same compound?
Its value is 1 µg/mL (≈ 0.671 µM).

And the “MIC Coagulase Negative Staphylococcus (GC 4547)” value ([3]; strain GC 4547)?
Its value is 1 µg/mL (≈ 0.671 µM).

What about the “MIC Coagulase Negative Staphylococcus (GC 4548)” value ([3]; strain GC 4548) of the same compound?
The value was 0.5 µg/mL (≈ 0.336 µM).

And the “MIC Coagulase Negative Staphylococcus (GC 4549)” value ([3]; strain GC 4549)?
The value was 0.5 µg/mL (≈ 0.336 µM).

And the “MIC Coagulase Negative Staphylococcus (GC 4551)” value ([3]; strain GC 4551)?
Its value is 2 µg/mL (≈ 1.34 µM).

What about the “MIC Coagulase Negative Staphylococcus (ID-3941)” value ([3]; strain ID-3941) of the same compound?
Its value is 0.5 µg/mL (≈ 0.336 µM).

What about the “MIC Staphylococcus aureus-SMITH (GC 4543)” value ([3]; strain SMITH GC 4543) of the same compound?
Its value is 2 µg/mL (≈ 1.34 µM).

And the “MIC Staphylococcus aureus (ATCC 29213)” value ([3]; strain ATCC 29213)?
The value was 1 µg/mL (≈ 0.671 µM).

What about the “MIC Staphylococcus aureus (GC 1131)” value ([3]; strain GC 1131) of the same compound?
The value was 2 µg/mL (≈ 1.34 µM).

What about the “MIC Staphylococcus aureus (GC 4541)” value ([3]; strain GC 4541) of the same compound?
The value was 1 µg/mL (≈ 0.671 µM).

And the “MIC Staphylococcus aureus (GC 4542)” value ([3]; strain GC 4542)?
The value was 2 µg/mL (≈ 1.34 µM).

And the “MIC Staphylococcus aureus (GC 4544)” value ([3]; strain GC 4544)?
Its value is 2 µg/mL (≈ 1.34 µM).

And the “MIC Staphylococcus aureus (GC 4545)” value ([3]; strain GC 4545)?
Its value is 1 µg/mL (≈ 0.671 µM).

What about the “MIC Escherichia coli (ATCC 25922)” value [4] of the same compound?
The value was greater than 128 µg/mL.

— US6914045B2, “Glycopeptide antibiotics” (Wyeth Holdings Corporation, priority 2001, dated 2005)
